{
  "source": "patent US9284283B2",
  "about": "“Macrocyclic compounds for modulating IL-17” (ENSEMBLE THERAPEUTICS CORPORATION, priority 2012, dated 2016)",
  "key": {"[1]": {"tested_on": "IL-17-induced GROα secretion from HT-29 cells", "test": "HT-29 cellular assay (IL-17-induced GROα secretion)", "type": "cell-based", "settings": "Homo sapiens", "procedure": "To test the ability of a compound of the invention to neutralize or antagonize IL-17 bioactivity, the following cell-based assay was used. IL-17 can stimulate epithelial cells and other cells to secrete GROα. The ability of a compound of the invention to neutralize IL-17-induced GROα secretion from the human colorectal adenocarcinoma epithelial cell line HT-29 is tested in this assay.\nHT-29 cells (human colorectal adenocarcinoma epithelial cells, ATCC #HTB-38), were maintained in culture/assay medium in tissue culture-treated flasks using standard techniques. HT-29 cells were grown in tissue culture flasks until they were 50-80% confluent on the day before the assay. The day before the assay, the cells were detached from the culture flasks with trypsin+EDTA. The trypsin was inactivated with complete assay medium. HT-29 cells were then centrifuged at 500×g for 5 minutes at room temperature. The cell pellet was then re-suspended in Defined Keratinocyte SFM (Invitrogen #10766019)+10% FCS and 50,000 HT-29 cells (in 100 μl) were added to each treatment well of the 96-well plates. The 96-well plates were placed in a tissue culture incubator (37° C., 5% CO2) overnight. The next day, the media was removed from the cells and the cells were washed twice with Defined Keratinocyte SFM. In a separate 96-well plate, compounds to be tested were serially diluted in Defined Keratinocyte SFM and run in triplicate in 100 μL total volume. To these compound samples were then added 100 μL of human IL-17 at a concentration of 20 ng/mL in Defined Keratinocyte SFM for serum-free assays. 150 μL of the compound/IL-17 mixture was then added to the cells from which the media has previously been removed. The cells were grown for 48 hours in Defined Keratinocyte SFM in a tissue culture incubator (37° C., 5% CO2).\nAt the end of the incubation, the plates are centrifuged (500×g for 5 minutes at room temperature), and the cell culture media is transferred to polypropylene 96-well plates. The supernatant was used neat in the ELISA. GROα levels are measured with a GROα sandwich ELISA (R+D Systems DuoSet #DY275E), as per the manufacturer's instructions. The ELISA plates were previously coated with mAb 275 (R+D Systems) at 4 μg/mL. GROα is detected using biotinylated goat anti-human GROα (R+D Systems BAF275) at 200 ng/mL using TMB as a substrate. At the end of the ELISA reactions, plates are read at 450 nm on a microplate reader and compared to a standard calibration curve."}, "[2]": {"molecular_target": "T1, recombinant human IL17a (binding to its receptor IL17R) (Homo sapiens, UniProt Q16552)", "T1 construct": "purchased R&D Systems 317-ILB (IL17a); 177-IR (IL17R/Fc)", "T1 sequence (Q16552 20-155 limits assumed)": "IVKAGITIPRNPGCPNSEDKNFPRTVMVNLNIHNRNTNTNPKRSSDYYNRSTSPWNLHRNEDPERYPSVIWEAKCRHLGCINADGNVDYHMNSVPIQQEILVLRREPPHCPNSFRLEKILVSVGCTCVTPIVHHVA", "test": "IL-17 competition ELISA I (IL17a coated, IL17R/Fc binding)", "in_short": "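Plates coated with 20 nM recombinant human IL17a received compound dilutions and 12 nM IL17R/Fc (final) for 30 min at room temperature. Bound receptor was detected with HRP anti-human Fc and TMB, read at 450 nm. IC50 came from a 4-parameter logistic fit between no-competitor and blank controls.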"}, "IL17A": {"molecular_target": "T2, IL17A (Homo sapiens, UniProt Q16552)", "T2 sequence (Q16552 24-155)": "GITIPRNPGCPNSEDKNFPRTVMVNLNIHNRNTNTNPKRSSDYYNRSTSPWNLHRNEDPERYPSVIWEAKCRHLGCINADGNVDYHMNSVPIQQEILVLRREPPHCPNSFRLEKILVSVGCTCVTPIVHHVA", "test": "Surface Plasmon Resonance (SPR) analysis of compound interactions with IL17A", "settings": "SPR binding to IL17A", "in_short": "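His-tagged IL17A captured on a Ni-NTA chip; five 2- or 3-fold compound dilutions from 50 μM injected for 180 s, 120 s dissociation, in HEPES-saline buffer with 0.5% DMSO. Baseline-subtracted sensorgrams fitted 1:1 for ka, kd and KD; Kd also derived from binding extent per concentration.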"}},
  "data": [
    {"compound": "O=C1CNC(=O)[C@@H](Cc2ccc(NC(=O)[C@H](Cc3ccccc3Br)NC(=O)Cc3ccccc3)cc2)NC(=O)CC2(CCCC2)CC(=O)NCCCCCN1", "note": "[Compound 187]", "values": [
      {"measurement": "IC50", "setting": "[1]", "value": "1000 to 10000", "unit": "nM"},
      {"measurement": "IC50", "setting": "[2]", "value": "< 100", "unit": "nM"},
      {"measurement": "Kd", "setting": "IL17A", "value": "< 100", "unit": "nM"}
    ]},
    {"compound": "O=C1CNC(=O)[C@@H](Cc2ccc(NC(=O)[C@H](Cc3ccccc3Cl)NC(=O)Cc3ccccc3)cc2)NC(=O)CC2(CCCC2)CC(=O)N[C@@H](C(=O)O)CCCCN1", "note": "[Compound 180]", "values": [
      {"measurement": "IC50", "setting": "[1]", "value": "< 1000", "unit": "nM"},
      {"measurement": "IC50", "setting": "[2]", "value": "< 100", "unit": "nM"},
      {"measurement": "Kd", "setting": "IL17A", "value": "< 100", "unit": "nM"}
    ]}
  ]
}
